Results on 3 compounds are retold here after patent US4440757A, “Pharmaceutical composition comprising derivative of aminobenzoic acid for regulating prostaglandin” (priority 1978, dated 1984).

The subject of one assay is male Sprague-Dowley rats. The assay can be described thus: Foot-oedema induced by carrageenin and PGE1. Format: in vivo. Conditions: 1000 mg/kg p.o.; with carrageenin + PGE1; 60 min after carrageenin. On the procedure: The three groups of male Sprague-Dowley rats of total six groups, the respective present substances, Specimens Nos. 4, 7 and 8 were administered forcibly by oral route at a rate of 1000 mg/kg, the other three groups of the same kind of rats being administered nothing at this time.
After 60 min of the administration, 0.1 ml of an aqueous solution of carrageenin (1 mg) and PGE1 (0.1 μg) was injected onto the hind paw of the four groups of the rats including the three groups administered with the present substance. To one group of remaining two groups not administered with the present substance, 0.1 ml of an aqueous solution containing only carrageenin at 1% was injected, and to the other one group not administered with the present substance, an aqueous solution containing only PGE1 was injected.
The volume of the thus swollen foot of the groups of the thus treated rats was measured by the water-displacement method, and the results are shown in Table 17 by the increment of the volume of foot as compared to the volume of foot before the treatment as percentage.

Assay [1] deals with female spontaneously hypertensive rats (SHR). Nature of the assay: Diuretic effect and 6-keto PGF1α in blood. In kind it is in vivo, rat (SHR). The settings on record: for Level of 6-keto PGF1α in blood: control 3.0. The procedure:
Groups of female spontaneously hypertensive rats (SHR) kept in fasting for 12 hours and abstained from water for 2 hours were treated by forced oral administration of the present substance (each of Specimens Nos. 4, 7 and 8) at respective rates of 1 and 5 g/kg dissolved in 8 ml (per 200 g b.w.) of an aqueous physiological saline solution, control group being administered only with the aqueous physiological saline solution in an amount of 8 ml/200 g b.w.
The amount of excreted urine of the rats was measured every hour from one hour after the administration for 6 times, and the percentages of the volume of urine to the volume of the aqueous physiological saline solution containing the present substance formerly administered (8 ml per 200 g b.w.) are shown in Table 19.
In the next place, after 6 hours of the administration, all animals were sacrificed to collect the whole blood for obtaining its plasma fraction. The ether-extract of the plasma fraction was separated by thin-layer chromatography and after converting the thus separated substances into methyloximesilyl derivatives, the variation of 6 keto PGF1α was examined by gas-chromatography-mass-spectrography.

Assay [2] relates to spontaneously hypertensive (SHR) male rats. Nature of the assay: Effect of indomethacin on the hypotensive action. Format: in vivo, rat (SHR). The settings on record: 100 mg/kg p.o.; indomethacin 2.5 mg/kg before and after. An excerpt:
It is known that PGs are produced from arachidonic acid, and cyclooxygenase participates in the conversion of arachidonic acid to PGG2, that indomethacin inactivates the above-mentioned cyclooxygenase and further that the […] of PGs is completely stopped by the administration of indomethacin.
Accordingly, the transition of blood pressure of the spontaneously hypertensive (SHR) male rats 30 to 40 weeks after birth was compared in both cases (1) where only the present substance was administered at a rate of 100 mg/kg and (2) where indomethacin was administered 2 times at a rate of 2.5 mg/kg/time before and after the administration of the present substance. The present substance, Specimen No. 7, was dissolved into distilled water or dispersed in an aqueous 2% solution of carboxymethylcellulose, and forcibly administered orally. Indomethacin was dispersed in an aqueous 2% solution of carboxymethylcellulose, and the dispersion was also forcibly administered orally, one hour before and after the administration of the present substance.

Assay [3] deals with HeLa S3 cultured cells of human uterine cancer. The assay can be described thus: PGE in culture medium of human uterine cancer cells. In kind it is cell-based. Conditions: for Concentration of PGE after culture: 2 days, control 312; for Change of Concentration of PGE during culture: control +120. The procedure: To each 10 ml of a culture medium prepared by adding 10% bovine foetal serum and one of the present substance, Specimen No. 7, at a concentration of 0 (control), 10, 100, 500, 1,000 or 5,000 μg/ml to Eagle's culture medium and placed in a polystyrene flask of 75 cm^2 in bottom surface, HeLa S3 cultured cells of human uterine cancer were inoculated at a rate of 5×10^5 cells/flask and cultured at 37° C. for 2 days under a mixed atmosphere of 5% by volume of gaseous carbon dioxide and 95% by volume of air. After the incubation was over, the whole cultured medium was centrifugated at a temperature of 4° C. at 1,500 rpm to obtain a supernatant liquid of the cultured medium. The content of PGE in the supernatant liquid was determined by ^3 H-Prostaglandin E Radioimmunoassay Kit.

Assay [4] concerns sarcoma induced by methylcholanthrene; 6-keto PGF1α. Nature of the assay: Level of 6-keto PGF1α in plasma of sarcoma-bearing rats. Format: in vivo, spontaneous hypertensive rats (SHR). Conditions: 500 mg/kg/day i.p., 6 days. The procedure: Cells of sarcoma induced by methylcholanthrene were transplanted on the back of a group of spontaneous hypertensive rats (SHR) subcutaneously at a rate of 1×10^6 cells/animal, and while feeding the rats, the present substance, Specimen No. 7, was daily administered intraperitoneally for consecutive 6 days from after 24 hours of the transplantation at a rate of 500 mg/kg/day. After 2 weeks of the ending of administration, whole blood was collected to obtain a fraction of plasma. The ether-extract of the plasma was separated by thin layer chromatography and after converting the extract into a methyloximesilyl derivative, the variation of the level 6-keto PGF1α in the extract was examined by gas-chromatography and masspectroscopy.

For the next assay, the system named is Adenocarcinoma 755. The assay can be described thus: PGE in tumour of adenocarcinoma 755 and its proliferation. In kind it is in vivo, female C57BL/6 mouse. Conditions: 1 g/kg/day oral. The procedure:
Tumour cells of Adenocarcinoma 755 were transplanted subcutaneously to groups of female C57BL/6 mouse of after 8 weeks of birth and while feeding the mice, the present substance, Specimen No. 7, was orally administered every day from the next day of transplantation at a rate of 1 g/kg/day. The mice were sacrificed with ether on 7th or 14th day of transplantation to extirpate the tumour. The thus extirpated tumour was treated by the same procedures as in Example 11 to determine the content of PGE in the tumour.

The mark [5] stands for this setting: 1 g/kg p.o., 2 hours, control 9.
Setting [6] is: 1 g/kg p.o., 3 hours, control 22.
Setting [7] is: 1 g/kg p.o., 4 hours, control 26.
[8] abbreviates: 1 g/kg p.o., 5 hours, control 28.
[9] abbreviates: 1 g/kg p.o., 6 hours, control 30.
Setting [10] is: 5 g/kg p.o., 2 hours, control 9.
[11] abbreviates: 5 g/kg p.o., 3 hours, control 22.
[12] abbreviates: 5 g/kg p.o., 4 hours, control 26.
[13] abbreviates: 5 g/kg p.o., 5 hours, control 28.
[14] abbreviates: 5 g/kg p.o., 6 hours, control 30.

On to `O=C(O)c1ccc(NC2O[C@H](CO)[C@@H](O)[C@H](O)[C@@H]2O)cc1` (stereo partly drawn) [Specimen No. 4, Sodium p-aminobenzoate-N--D-mannoside], for which the “Percentage increment of volume of foot” value with male Sprague-Dowley rats worked out at 32.5%. The Volume of urine is recorded as 6% in assay [1] (1 g/kg p.o., 1 hour, control 2); 40% in assay [1] (setting [5]); 46% in assay [1] (setting [6]); 50% in assay [1] (setting [7]); 60% in assay [1] (setting [8]); 63% in assay [1] (setting [9]). Moreover, the Volume of urine in assay [1] (5 g/kg p.o., 1 hour, control 2) worked out at 7%; in assay [1] (setting [10]) it was 40%; in assay [1] (setting [11]), 50%; in assay [1] (setting [12]), 52%; in assay [1] (setting [13]) it was 78%; in assay [1] (setting [14]) it was 91%. Moreover, the “Level of 6-keto PGF1α in blood” value was 3.3 ng/mL in assay [1] (1 g/kg p.o., 6 hours) and 3.5 ng/mL in assay [1] (5 g/kg p.o., 6 hours).

For `O=C(O)c1ccc(NC2OC[C@@H](O)[C@H](O)[C@H]2O)cc1` (stereo partly drawn) [Specimen No. 7, Sodium p-aminobenzoate-N--D-xyloside], the “hypotensive effect with indomethacin (FIG. 9)” value in assay [2] is on record as “disappeared”. Moreover, the “Concentration of PGE after culture” value in assay [3] (10 μg/ml) was 40 pg/mL; in assay [3] (100 μg/ml) it was 80 pg/mL; in assay [3] (500 μg/ml) it was 48 pg/mL; in assay [3] (1000 μg/ml), 25 pg/mL; in assay [3] (5000 μg/ml), 25 pg/mL. Further, the “Change of Concentration of PGE during culture” value in assay [3] (10 μg/ml) was -152 pg/mL; in assay [3] (100 μg/ml), -112 pg/mL; in assay [3] (500 μg/ml), -144 pg/mL; in assay [3] (1000 μg/ml), -167 pg/mL; in assay [3] (5000 μg/ml), -167 pg/mL. For the same compound, the “Percentage increment of volume of foot” value in the assay with male Sprague-Dowley rats was found to be 28.2%. In assay [4], the “level of 6-keto PGF1 in the blood of cancer-bearing rat (FIG. 14)” value is on record as “almost same as in normal rat”. Further, the Volume of urine in assay [1] (1 g/kg p.o., 1 hour, control 2) is reported as 4%; in assay [1] (setting [5]), 38%; in assay [1] (setting [6]), 45%; in assay [1] (setting [7]) it was 48%; in assay [1] (setting [8]), 63%; in assay [1] (setting [9]), 72%. Moreover, the Volume of urine in assay [1] (5 g/kg p.o., 1 hour, control 2) was 5%; in assay [1] (setting [10]), 50%; in assay [1] (setting [11]) it was 66%; in assay [1] (setting [12]), 80%; in assay [1] (setting [13]) it was 92%; in assay [1] (setting [14]) it was 100%. Moreover, the “Level of 6-keto PGF1α in blood” value in assay [1] (1 g/kg p.o., 6 hours) stood at 3.5 ng/mL. The “Content of PGE in tumour” value in the assay with Adenocarcinoma 755 (7th day, control 0.67) came to 2.83 ng/g; in the assay with Adenocarcinoma 755 (14th day, control 0.34), 1.15 ng/g. Moreover, the Weight of tumour is 1.04 g with Adenocarcinoma 755 (7th day, control 1.34) and 3.10 g in the assay on Adenocarcinoma 755 (14th day, control 4.01).

`C[C@@H]1OC(Nc2ccc(C(=O)O)cc2)[C@H](O)[C@H](O)[C@H]1O` (stereo partly drawn) [Specimen No. 8, Sodium p-aminobenzoate-N--L-rhamnoside]: the “Percentage increment of volume of foot” value in the assay with male Sprague-Dowley rats was determined as 29.7%. Moreover, the Volume of urine amounted to 5% in assay [1] (1 g/kg p.o., 1 hour, control 2); 39% in assay [1] (setting [5]); 47% in assay [1] (setting [6]); 50% in assay [1] (setting [7]); 65% in assay [1] (setting [8]); 68% in assay [1] (setting [9]). Moreover, the Volume of urine in assay [1] (5 g/kg p.o., 1 hour, control 2) stood at 5%; in assay [1] (setting [10]) it was 43%; in assay [1] (setting [11]), 60%; in assay [1] (setting [12]), 70%; in assay [1] (setting [13]), 77%; in assay [1] (setting [14]) it was 93%. In addition, the “Level of 6-keto PGF1α in blood” value worked out at 3.2 ng/mL in assay [1] (1 g/kg p.o., 6 hours) and 3.7 ng/mL in assay [1] (5 g/kg p.o., 6 hours).
